{"source": "patent US12622918B2", "about": "“Formulations and dosages for administering a compound that inhibits MCL1 protein” (Amgen Inc., priority 2019, dated 2026)", "key": {"KMS-12-BM": {"system": "KMS-12-BM", "assay": "Cell viability (CellTiterGlo), KMS-12-BM", "type": "cell-based", "settings": "Homo sapiens, Multiple myeloma, 24 hours, 10% FBS, read-out: AMS 176 IC50"}, "SU-OHL-6": {"system": "SU-OHL-6", "assay": "Cell viability (CellTiterGlo), SU-OHL-6", "type": "cell-based", "settings": "SU-OHL-6, NHL; 24 hours; 10% FBS; read-out: AMS 176 IC50"}, "KMS-28-BM": {"system": "KMS-28-BM", "assay": "Cell viability (CellTiterGlo), KMS-28-BM", "type": "cell-based", "settings": "Multiple myeloma, 24 hours, 10% FBS, read-out: AMS 176 IC50"}, "Namalwa": {"system": "Namalwa", "assay": "Cell viability (CellTiterGlo), Namalwa", "type": "cell-based", "settings": "NHL, 24 hours, 10% FBS, read-out: AMS 176 IC50"}, "KMS26": {"system": "KMS26", "assay": "Cell viability (CellTiterGlo), KMS26", "type": "cell-based", "settings": "KMS-26; KMS26, Multiple myeloma; 24 hours; 10% FBS; read-out: AMS 176 IC50"}, "KMM1": {"system": "KMM1", "assay": "Cell viability (CellTiterGlo), KMM1", "type": "cell-based", "settings": "KMM-1; KMM1, Multiple myeloma; 24 hours; 10% FBS; read-out: AMS 176 IC50"}, "MM1R": {"system": "MM1R", "assay": "Cell viability (CellTiterGlo), MM1R", "type": "cell-based", "settings": "MM.1R, Multiple myeloma, 24 hours, 10% FBS, read-out: AMS 176 IC50"}, "TF-1": {"system": "TF-1", "assay": "Cell viability (CellTiterGlo), TF-1", "type": "cell-based", "settings": "Homo sapiens; TF-1, AML; 24 hours; 10% FBS; read-out: AMS 176 IC50"}, "Raji": {"system": "Raji", "assay": "Cell viability (CellTiterGlo), Raji", "type": "cell-based", "settings": "Homo sapiens, NHL, 24 hours, 10% FBS, read-out: AMS 176 IC50"}, "HEL 92.1.7": {"system": "HEL 92.1.7", "assay": "Cell viability (CellTiterGlo), HEL 92.1.7", "type": "cell-based", "settings": "Homo sapiens; HEL 92.1.7, AML; 24 hours; 10% FBS; read-out: AMS 176 IC50"}, "Toledo": {"system": "Toledo", "assay": "Cell viability (CellTiterGlo), Toledo", "type": "cell-based", "settings": "Homo sapiens, NHL, 24 hours, 10% FBS, read-out: AMS 176 IC50"}, "BAK": {"system": "BAK", "assay": "BAK activation in OPM2-Luc tumor xenografts (PD)", "type": "in vivo, mice", "settings": "for BAK activation: 2-, vs vehicle p<0.05", "method": "Activation of the pro-apoptotic pore-forming protein BAK and proteolytic cleavage of the cysteine-aspartic acid protease caspase 3 (hallmarks of the induction of apoptosis) in MCL1-dependent OPM2-Luc multiple myeloma tumor cells served as a PD assay. Female athymic nude mice were injected with 5×10^6 cells in 0.1 mL subcutaneously (SC). […] Mice were euthanized 2, 4, 8, 12, and 24 hours postdose (n=3/group), terminal plasma samples were collected for PK analysis, and tumors were halved and snap frozen in liquid nitrogen for PK and molecular analyses. Tumor lysates were prepared for evaluation of BAK activation and caspase 3 cleavage using an electrochemiluminescence immunoassay. Tumors treated with vehicle (25% HPβCD, pH 8) served as a negative control and indicated the baseline level of apoptosis."}, "[1]": {"system": "OPM2-Luc tumor xenografts", "assay": "OPM2-Luc xenograft efficacy, once daily dosing", "type": "in vivo, mice", "settings": "for animals tumor free: day 24", "method": "OPM2-Luc cells (5×10^6) were implanted subcutaneously into female athymic nude mice. […] Three of 10 animals in the 30 mg/kg group and 10 of 10 animals in the 60 mg/kg group were tumor free on day 24."}, "[2]": {"assay": "Pharmacokinetics in monkeys", "settings": "male, monkey, in vivo, read-out: mean terminal elimination half-life (t1/2,z) (converted)", "from_the_text": "The pharmacokinetics (PK) of the compound of Formula I after single intravenous (IV) or oral administration were characterized in male CD1 mice, female athymic nude mice, male Nu/Nu mice, male Sprague Dawley rats, male beagle dogs, and male cynomolgus monkeys. The clearance (CL) of the compound was low in mice, rats, dogs, and monkeys relative to their hepatic blood flow. Volume of distribution at steady state (Vss) in mice, rats, dogs, and monkeys was variable across the species."}, "rat": {"system": "rat", "assay": "28-day GLP rat IV infusion toxicology study", "type": "in vivo", "from_the_text": "(§1) The doses selected for the 28-day IV rat and dog toxicology studies were intended to characterize the toxicity of the compound of Formula I and provide data to support a starting dose in the first-in-human (FIH) study. An IV route of administration and a dosing schedule of 2 days on/5 days off was used to support the anticipated clinical route and dosing schedule."}, "dogs": {"system": "dogs", "assay": "28-day GLP IV toxicology study in dogs", "type": "in vivo", "settings": "dog", "from_the_text": "as §1"}, "[3]": {"from_the_text": "Nonclinical safety studies on the compound of Formula I consisted of an exploratory 14-day dog IV toxicology study, Good Laboratory Practices (GLP) 28-day rat and dog IV toxicology studies, in vitro exploratory genotoxicity studies (GLP human ether-á-go-go related gene [hERG] and non-GLP isolated rabbit heart) to characterize potential cardiovascular effects. The doses selected for the 28-day IV rat and dog toxicology studies were intended to characterize the toxicity of the compound of Formula I and provide data to support a starting dose in the first-in-human (FIH) study. An IV route of administration and a dosing schedule of 2 days on/5 days off was used to support the anticipated clinical route and dosing schedule. In a 28-day GLP rat IV infusion toxicology study, the severely toxic dose in 10% of animals (STD10) was 60 mg/kg based on mortality at 120 mg/kg and in a 28-day GLP IV toxicology study in dogs, the highest-nonseverely-toxic dose (HNSTD) was 10 mg/kg based on mortality at 20 mg/kg."}, "[4]": {"system": "subjects with relapsed/refractory multiple myeloma", "assay": "Phase 1 FIH study, multiple myeloma part 1b (QW)", "type": "in vivo, human", "description": "In part 1a, subjects were enrolled across 8 cohorts, with doses ranging from 30 to 240 mg/m^2 QD2. In part 1b, subjects were enrolled across 2 cohorts, with doses of 120/180-mg/m^2 or 120/240-mg/m^2."}}, "data": [{"compound": "CO[C@H]1/C=C/C[C@H](C)[C@@H](C)S(=O)(=O)NC(=O)c2ccc3c(c2)N(C[C@@H]2CC[C@H]21)C[C@@]1(CCCc2cc(Cl)ccc21)CO3", "note": "[AMG 176]", "values": [{"measurement": "IC50", "setting": "KMS-12-BM", "result": 15, "unit": "nM"}, {"measurement": "IC50", "setting": "SU-OHL-6", "result": 165, "unit": "nM"}, {"measurement": "IC50", "setting": "KMS-28-BM", "result": 205, "unit": "nM"}, {"measurement": "IC50", "setting": "Namalwa", "result": 237, "unit": "nM"}, {"measurement": "IC50", "setting": "KMS26", "result": 248, "unit": "nM"}, {"measurement": "IC50", "setting": "KMM1", "result": 407, "unit": "nM"}, {"measurement": "IC50", "setting": "MM1R", "result": 1140, "unit": "nM"}, {"measurement": "IC50", "setting": "TF-1", "result": 2090, "unit": "nM"}, {"measurement": "IC50", "setting": "Raji", "result": 3550, "unit": "nM"}, {"measurement": "IC50", "setting": "HEL 92.1.7", "result": 5990, "unit": "nM"}, {"measurement": "IC50", "setting": "Toledo", "result": 9700, "unit": "nM"}, {"measurement": "BAK activation", "setting": "BAK; 30 mg/kg oral gavage, 4-, and 8-hour time points", "result": "Statistically significant BAK activation"}, {"measurement": "time point of greatest BAK activation", "setting": "BAK; 60 mg/kg oral gavage", "result": 4, "unit": "h"}, {"measurement": "BAK activation", "setting": "BAK; 60 mg/kg oral gavage, 4-, 8-, and 12-hour time points", "result": "Statistically significant BAK activation"}, {"measurement": "induction of multiple markers of apoptosis, including BAK activation and caspase 3 cleavage", "setting": "BAK; OPM2-Luc tumor xenografts, summary statement", "result": "dose-dependent induction"}, {"measurement": "TGI", "setting": "[1]; 20 mg/kg once daily oral gavage, p<0.001", "result": 63, "unit": "%"}, {"measurement": "effect on established OPM2-Luc tumors", "setting": "[1]; 30 mg/kg and 60 mg/kg orally once daily, summary statement", "result": "tumor regression"}, {"measurement": "tumor regression", "setting": "[1]; 30 mg/kg once daily oral gavage, p<0.001", "result": 50, "unit": "%"}, {"measurement": "animals tumor free", "setting": "[1]; 30 mg/kg once daily", "result": "Three of 10"}, {"measurement": "tumor regression", "setting": "[1]; 60 mg/kg once daily oral gavage, p<0.0001", "result": 100, "unit": "%"}, {"measurement": "animals tumor free", "setting": "[1]; 60 mg/kg once daily", "result": "10 of 10"}, {"measurement": "changes in body weight and body score assessment", "setting": "[1]; 10-60 mg/kg once daily oral gavage", "result": "no evidence of AMG 176-related changes"}, {"measurement": "half-life", "setting": "[2]", "result": 1.66, "unit": "h"}, {"measurement": "finding related to morbidity and mortality", "setting": "rat", "result": "mucosal epithelial degeneration in the small and large intestines"}, {"measurement": "dose with mortality", "setting": "rat; IV infusion, 28-day", "result": 120, "unit": "mg/kg"}, {"measurement": "severely toxic dose in 10% of animals (STD10)", "setting": "rat; IV infusion, 2 days on/5 days off, 28-day", "result": 60, "unit": "mg/kg"}, {"measurement": "finding related to morbidity and mortality", "setting": "dogs", "result": "mucosal epithelial degeneration in the small and large intestines"}, {"measurement": "dose with mortality", "setting": "dogs; IV, 28-day", "result": 20, "unit": "mg/kg"}, {"measurement": "highest-nonseverely-toxic dose (HNSTD)", "setting": "dogs; IV, 2 days on/5 days off, 28-day", "result": 10, "unit": "mg/kg"}, {"measurement": "genotoxicity", "setting": "[3]", "result": "not mutagenic or clastogenic"}, {"measurement": "Grade 3 adverse events, subjects", "setting": "[4]; MM part 1b", "result": 83, "unit": "%"}, {"measurement": "adverse events considered related to AMG 176, subjects", "setting": "[4]; MM part 1b", "result": 83, "unit": "%/a"}, {"measurement": "adverse events leading to discontinuation of investigational product", "setting": "[4]; MM part 1b", "result": "no adverse event led to discontinuation"}, {"measurement": "fatal adverse events", "setting": "[4]; MM part 1b", "result": "no fatal adverse events occurred"}, {"measurement": "grade 4 adverse events, subjects", "setting": "[4]; MM part 1b", "result": 17, "unit": "%"}, {"measurement": "hypertension of grade 3 or higher", "setting": "[4]; MM part 1b", "result": 33, "unit": "%"}, {"measurement": "neutropenia of grade 3 or higher", "setting": "[4]; MM part 1b", "result": 67, "unit": "%"}, {"measurement": "serious adverse events", "setting": "[4]; MM part 1b", "result": "No serious adverse events were reported"}, {"measurement": "adverse events, subjects", "setting": "[4]; MM part 1b QW, 6 subjects", "result": 83, "unit": "%"}, {"measurement": "diarrhea, subjects", "setting": "[4]; MM part 1b, any grade", "result": 33, "unit": "%"}, {"measurement": "fatigue, subjects", "setting": "[4]; MM part 1b, any grade", "result": 33, "unit": "%"}, {"measurement": "hypertension, subjects", "setting": "[4]; MM part 1b, any grade", "result": 33, "unit": "%"}, {"measurement": "nausea, subjects", "setting": "[4]; MM part 1b, any grade", "result": 50, "unit": "%"}, {"measurement": "neutropenia, subjects", "setting": "[4]; MM part 1b, any grade", "result": 67, "unit": "%"}, {"measurement": "exposures (Cmax and AUC) versus dose", "setting": "[4]; MM part 1b, 6 subjects, preliminary", "result": "generally increased with increasing doses"}]}]}
